According to PubChem BioAssay AID1996:
≈ marks a conversion by molar mass, not a printed value.

Conditions: buffer; pH 7.4; 200.0 µM

SMILES | solubility kinetic [µg/mL]
O=C(c1cccc(Cl)c1)N1CCN(Cc2ccccc2)CC1 | 47.1 (≈ 150 µM)
O=C(COC(=O)c1ccc([N+](=O)[O-])o1)NC1CCCC1 | 39.2 (≈ 139 µM)
COc1ccc(CCNC(=O)COC(=O)c2cc(=O)[nH]c3ccccc23)cc1 | 8.9 (≈ 23.4 µM)
Cc1ccc(OCCN2C(=O)C(=O)c3cc(C)ccc32)cc1 | 4.1 (≈ 13.9 µM)
O=Cc1ccc(OCc2cn3ccccc3n2)cc1 | > 37.8
CC(C)c1cc(NCCOCCO)n2c(nc3ccccc32)c1C#N | 7.8 (≈ 23 µM)
CSc1ccccc1NC(=O)COc1ccccc1C | < 0.6
CS(=O)(=O)N(CC(=O)N1CCOCC1)c1ccccc1Br | > 56.6
Cc1ccc2[nH]cc(S(=O)(=O)c3ccc(C(C)C)cc3)c(=O)c2c1 | < 0.7
Cc1cc(Br)c(NC(=O)COC(=O)C2CCCCC2)c(Br)c1 | 10.1 (≈ 23.3 µM)
COc1ccccc1NS(=O)(=O)c1cc(N)ccc1N1CCCC1 | 21.4 (≈ 61.6 µM)
NC(=O)CSc1nnc(-c2ccco2)n1-c1ccccc1 | > 45.1
COc1cccc(C(=O)N2CCN=C2SC)c1 | 35.1 (≈ 140 µM)
CNC(=S)Nc1cccc(C(=O)OC)c1 | > 33.6
COc1ccc2[nH]cc(CCNC(=S)NCCc3ccccc3)c2c1 | 26.3 (≈ 74.4 µM)
C=CCn1c(SCC(N)=O)nc2nc3c(cc2c1=O)COC(C)(C)C3 | 46.6 (≈ 129 µM)
Cl.Nc1ccc(Oc2cc(N)cc(Oc3ccccc3)c2)cc1 | 30.1
Cc1[nH]c2c(C)cccc2c1CN1CCC(CO)(Cc2ccccc2)CC1 | 28.8 (≈ 79.4 µM)
COc1ccccc1CNC(=O)COC(=O)c1cc2ccccc2o1 | 3.8 (≈ 11.2 µM)
CCOc1cc(CN2CCN(c3ncccn3)CC2)ccc1OC | 43.4 (≈ 132 µM)
O=C(CN1CCOCC1)Nc1nc(-c2ccccc2)cs1 | 42.2 (≈ 139 µM)
Cc1ccc(NC(=O)CSc2nc(N)cc(=O)[nH]2)cc1S(=O)(=O)N1CCCCC1 | 46.6 (≈ 107 µM)
O=C(O)C1=NN(c2c(F)c(F)cc(F)c2F)C(=O)CC1 | > 43.5
CC1CCCCN1C(=S)NC(=O)c1cccs1 (stereo not drawn) | > 40.3

SMILES | solubility kinetic [µg/mL]
COCC(=O)Nc1nc(-c2ccc([N+](=O)[O-])cc2)cs1 | 7.3 (≈ 24.9 µM)
O=C(COC(=O)c1ccc(F)cc1)NCCCc1ccccc1 | 5.9 (≈ 18.7 µM)
CNS(=O)(=O)c1cc(Cl)ccc1Sc1ccccc1C(=O)O | > 53.7
O=C(Cc1c(Cl)cccc1Cl)NC1=NCCS1 | 19.2 (≈ 66.4 µM)
Cc1cc(NC(=O)COC(=O)c2c(C)c(C)c(C)c(C)c2C)no1 | 2.3 (≈ 6.96 µM)
CN(Cc1ccc(F)cc1Cl)S(=O)(=O)c1cccs1 | 6.8 (≈ 21.3 µM)
C=C(C)n1c(=O)n(Cc2ccc(C)cc2)c2ccccc21 | 16.3 (≈ 58.6 µM)
COc1ccc(CC(=O)NCc2csc(-c3cccs3)n2)cc1OC | 54.6 (≈ 146 µM)
Cc1cc(C)nc(SCCC(=O)Nc2ccccc2Cl)n1 | > 48.3
Cn1c(-c2ccc(Cl)nc2)nc2ccccc21 | > 36.6
Cc1nnc(SCc2nnc(-c3cccs3)o2)n1C | > 44
C=CCn1c(C)cc(C(=O)COc2ccc(N(C)S(=O)(=O)c3ccc(NC(C)=O)cc3)cc2)c1C | 9.3 (≈ 18.8 µM)
C=CCn1c(SCC(=O)Nc2sc3c(c2C#N)CCC(C)C3)nc2cc(C(=O)O)ccc2c1=O (stereo not drawn) | 15 (≈ 30.3 µM)
Cc1ccc(NC(=O)CCc2c(C)[nH]c(=O)c(C#N)c2C)cc1 | 12.3 (≈ 39.8 µM)
CC1CCC(N2CCN(c3ccc([N+](=O)[O-])cc3)CC2)CC1 (stereo not drawn) | 19.1 (≈ 63 µM)
CN(C)/C=C(\C=O)c1onc(-c2ccccc2Cl)c1C#N | 44.8 (≈ 148 µM)
CC(=O)Nc1cccc(C(=O)NC(C)c2ccc(-n3ccnc3)cc2)c1 (stereo not drawn) | 45.5 (≈ 131 µM)
COc1ccc(NC(=O)CN(C)CC(=O)N(CC(C)C)c2c(N)n(CC(C)C)c(=O)[nH]c2=O)cc1 | > 73.3
Cc1ccc(S(=O)(=O)N2CCN(c3ncnc4scc(-c5ccccc5)c34)CC2)cc1 | 0.9 (≈ 2 µM)
COc1ccc(-c2cc(C(=O)Nc3ccc(OC)c(OC)c3)no2)cc1 | < 0.4
COc1ccc(CN2CCNCC2)cc1.Cl | > 36.4
CCc1ccc2nc(N)sc2c1 | > 26.7
CCOc1ccc(NC(=S)Nc2ccc(F)cc2)cc1 | 8.3 (≈ 28.6 µM)
OCC[N+]12CCC(CC1)C(C(O)(c1ccccc1)c1ccccc1)C2 (stereo not drawn) | > 50.8

SMILES | solubility kinetic [µg/mL]
CC1(C)CC(NS(=O)(=O)c2ccc(F)cc2)CC(C)(C)N1 | 47.1 (≈ 150 µM)
Cc1nn(C)cc1CN(C)S(=O)(=O)c1cccc([N+](=O)[O-])c1 | > 48.7
O=C1CN(C(=O)CNCc2ccccc2)c2ccccc2N1 | 33.9 (≈ 115 µM)
Cn1ccc(C(=O)N/N=C/c2ccncc2)n1 | > 34.4
CC(CN1CCN(C)CC1)OC(=O)c1ccc(F)cc1.Cl (stereo not drawn) | > 47.5
O=S(=O)(NC1CC2CCC1C2)c1ccc(Cl)cc1 (stereo not drawn) | 38.4 (≈ 134 µM)
CCOc1ccccc1N1CN(Cc2ccccc2)CNC1=S | > 49.1
O=C(c1cn(Cc2ccccc2)c2ccccc12)N1CCCCC1 | 30.6 (≈ 96.1 µM)
O=C(CCCN1CCC2(CC1)C(=O)NCN2c1ccccc1)c1ccc(F)cc1 | 50.1 (≈ 127 µM)
CC(=O)NCc1ccc(C(=O)COC(=O)COc2ccc(Cl)c(C)c2)s1 | 38.6 (≈ 97.5 µM)
CN(C(=O)CSc1ncccn1)C1CCS(=O)(=O)C1 (stereo not drawn) | 42.2 (≈ 140 µM)
O=[N+]([O-])c1ccc2oc(-c3ccccc3)nc2c1 | < 0.3
COc1ccc(CNc2nc3ccccc3n2C(C)C)c(O)c1 | 25.7 (≈ 82.5 µM)
CC(=O)Nc1ccc(S(=O)(=O)NCCC(=O)N2CCN(c3ccccc3Cl)CC2)cc1 | > 69.7
Cc1cccc(OCC(=O)NCC(=O)N/N=C/c2cccnc2)c1 | > 49
COc1cccc(S(=O)(=O)Nc2ccc3c(c2)OCCO3)c1 | > 48.2
O=C1[C@H](O)[C@@H](O)C(=O)N1Cc1ccccc1 | > 33.2
C=CCOc1ccc2c(c1)c(=O)cc(C(=O)O)n2CC | 39.7 (≈ 145 µM)
COc1ccccc1NC(=S)N1CCCc2ccccc21 | 22.9 (≈ 76.7 µM)
CCOC(=O)c1c(-c2cccc(N)c2)cn2ccccc12 | 35.1 (≈ 125 µM)
CCN(C(=O)CSc1nc(C)cc(=O)[nH]1)C1CCCCC1 | > 46.4
O=C(CCc1c[nH]c2ccccc12)NCCOc1ccccc1 | 43.7 (≈ 142 µM)
Cc1cccc(NS(=O)(=O)c2ccc(C(=O)N3CCC3)cc2)c1C | 50.8 (≈ 147 µM)
O=C(Cc1c(F)cccc1Cl)N1CCOCC1 | > 38.7

SMILES | solubility kinetic [µg/mL]
Cc1ccc(S(=O)(=O)CC(=O)NC(C)c2ccccc2)cc1 (stereo not drawn) | 42.4 (≈ 134 µM)
O=C(O)c1ccccc1Nc1ccc([N+](=O)[O-])cc1C(=O)O | > 45.3
Cc1ccc(C)c(NC(=O)CN2C(=O)NC(CCc3ccccc3)C2=O)c1 (stereo not drawn) | 2.5 (≈ 6.84 µM)
O=[N+]([O-])c1ccc(-c2nc(NCC3CCCO3)c3ccccc3n2)cc1 (stereo not drawn) | 0.6 (≈ 1.71 µM)
O=C(CSc1nc(-c2ccccc2)cc(=O)[nH]1)Nc1ccccc1 | 1.3 (≈ 3.85 µM)
Cc1ccc(N2CCN(S(=O)(=O)N3CCCCC3)CC2)c(C)c1 | 3.8 (≈ 11.3 µM)
O=C(Cc1ccccc1)Nc1cc2c(cc1Cl)OCCCO2 | 5.5 (≈ 17.3 µM)
CCc1nonc1NC(=O)c1oc2ccc(C)cc2c1C | < 0.2
Cc1ccc(C2SCC(=O)N2c2ccccc2)cc1 (stereo not drawn) | > 40.4
COc1cc(OC)cc(C(=O)Nc2cccc3ccccc23)c1 | 1.9 (≈ 6.18 µM)
O=C(COC(=O)CCNS(=O)(=O)c1ccccc1)NC1CC1 | 43.8 (≈ 134 µM)
COc1cc([N+](=O)[O-])cc([N+](=O)[O-])c1NC(=O)N1CCOCC1 | > 48.9
COc1ccc(S(=O)(=O)NCC2CCCO2)cc1Cl (stereo not drawn) | 34.2 (≈ 112 µM)
CC(C)(C)c1cc(NC(=O)c2ccco2)no1 | > 35.1
N#C/C(=C\c1c(N2CCCCCC2)nc2ccccn2c1=O)C(N)=O | > 50.6
O=[N+]([O-])c1ccc2ncnc(Nc3ccc4c(c3)OCCO4)c2c1 | 0.2 (≈ 0.617 µM)
Cc1ccc(NC(=O)Cn2cc([N+](=O)[O-])nc2C)cc1C | 14.8 (≈ 51.3 µM)
O=C(CN1CCCC1c1cccs1)Nc1cc(S(=O)(=O)N2CCCC2)ccc1Cl (stereo not drawn) | 1.6 (≈ 3.52 µM)
Cc1noc(C)c1COC(=O)COc1ccc(C#N)cc1 | > 42.9
O=C(Cc1ccccc1)Nc1ccc(NC(=O)c2ccccc2)nc1 | 5.2 (≈ 15.7 µM)
COc1ccc(/C=C2\N=C(SC)N(c3ccccc3OC)C2=O)cc1 | 1.4 (≈ 3.95 µM)
COc1ccc(CNC(=O)CCn2c(C)csc2=O)cc1 | > 46
Cc1cc(NC(=O)NC(=O)c2ccccc2F)no1 | 3 (≈ 11.4 µM)
OCc1c[nH]c2ccccc12 | 7 (≈ 47.6 µM)

SMILES | solubility kinetic [µg/mL]
N/C(=N\O)c1ccc(Cl)cc1Cl | 30 (≈ 146 µM)
CCN(c1ccc(NC(=O)COC(=O)/C=C/c2ccco2)cc1)C(C)C | 24.5 (≈ 68.7 µM)
O=C(NCc1ccncc1)C(=O)Nc1nccs1 | > 39.3
OC(CNCc1cccs1)c1ccccc1 (stereo not drawn) | > 35
CC(=O)N1CCN(c2nnc(-c3ccccc3)c3ccccc23)CC1 | > 49.9
Cn1c(=O)c([N+](=O)[O-])c(NCC2CCCO2)c2ccccc21 (stereo not drawn) | > 45.5
O=C(Nc1ccccc1)N1CCc2c([nH]c3ccccc23)C1C(F)(F)F (stereo not drawn) | 1.8 (≈ 5.01 µM)
NC(=O)Nc1ccc(Cl)cc1 | > 25.6
Cc1ccc(NC(=O)CCn2cc(C(F)(F)F)ccc2=O)cc1 | 45.5 (≈ 140 µM)
COC(=O)c1cc(-c2ccccc2)nc2nc(SC)[nH]c(=O)c12 | 9.8 (≈ 29.9 µM)
Cc1cccc(OCC(=O)NCC(C)(C)N2CCOCC2)c1 | > 46
O=C1c2ccc([N+](=O)[O-])cc2C(=O)N1c1ccc([N+](=O)[O-])cn1 | 41.3 (≈ 131 µM)
CC(=O)N1CCC(c2c[nH]c3ccccc23)CC1 | > 36.3
CNC(=O)Nc1cccc(-c2cc(-c3c(Cl)cccc3Cl)no2)c1 | < 0.3
CCCc1c(C)nc(SCC(=O)C(C)(C)C)nc1OC(=O)N(C)C | 46.8 (≈ 132 µM)
CC(C)(C)c1ccc(-c2nc(C#N)c(NCCCn3ccnc3)o2)cc1 | 1.2 (≈ 3.43 µM)
CCC(C)[C@H](NC(=O)N1CCC(C)CC1)C(=O)OC (stereo partly drawn) | > 40.6
CC1CCCN(C(=O)COC(=O)Cc2ccc(Cl)cc2)C1 (stereo not drawn) | 29.8 (≈ 96.2 µM)
CCc1ccc(C(=O)COC(=O)CNC(=O)Cc2ccccc2)cc1 | 36.6 (≈ 108 µM)
CCCCc1nnc(SCC(=O)NC2CCCCC2)n1C | > 46.6
Cc1noc(C)c1C(=O)Nc1ccc(C#N)cc1 | > 36.2
CN=C(NC1CCCCC1)c1ccc([N+](=O)[O-])cc1 | > 39.2
